In article PMC10217546, “Antioxidant Activities of Dihydromyricetin Derivatives with Different Acyl Donor Chain Lengths Synthetized by Lipozyme TL IM” (Foods, 2023):
Read-outs that look alike come from different tables or passages of the source. Marks after values point to notes of the source that are not given here.

Legend:
[1] = ABTS radical scavenging ability; conditions: ABTS radical scavenging test, 30 °C, 6 min, 734 nm
Procedure: The ability of DHM and its acylated derivatives to scavenge ABTS radicals was evaluated using a previous method with some modification. Samples (0.1 mL, 0.01, 0.02, 0.04, 0.06, and 0.08 mg/mL) were added to 3.9 mL of ABTS solution and measured at 734 nm after incubation at 30 °C for 6 min. Vc (a water-soluble antioxidant) and TBHQ (a lipid soluble antioxidant) were used as controls. (3) ABTS radical scavenging activity (%) =(1−A1 - A2/A0) × 100 where A0, A1, and A2 represent the absorbance values of the ABTS-ethanol, ABTS-samples, and samples-ethanol mixtures, respectively.

[2] = DPPH radical scavenging ability; conditions: for IC50 DPPH: DPPH radical scavenging test; for scavenging rate of DPPH free radicals: sample concentration 20 μg/mL, 30 min in the dark, 517 nm
Procedure: The method used to determine the abilities of DHM and its acylated derivatives was a previous method with some modifications. Two milliliters of DPPH (0.065 mg/mL) and 2 mL of the sample (3, 5, 10, 15, and 20 μg/mL) were added to a centrifuge tube and described at 517 nm after 30 min of reaction in a dark environment. Vc (a water-soluble antioxidant) and TBHQ (a lipid soluble antioxidant) were used as controls. (2) DPPH radical scavenging activity (%) =(1−A1 - A2/A0) × 100 where A0, A1, and A2 represent the absorbance values of the DPPH-ethanol, DPPH-sample, and sample-ethanol mixtures, respectively.

[3] = Partition coefficient of lipids and water (log P), n-octanol/water by HPLC; type: physicochemical
Procedure: The lipophilicity of DHM and its derivatives was evaluated using log P, which was determined by a previous method with several modifications. Two milligrams of sample were dissolved in n-octanol solution (4 mL) saturated by water and analyzed using HPLC at 298 nm (A0). The n-octanol solution (1 mL) saturated by water containing the sample was mixed with water solution (1 mL) saturated by n-octanoland and then shaken using a constant-temperature water bath oscillator (Tianjin, China) at 30 °C for 24 h at 150 rpm. The ultraviolet absorbance of the upper solution was analyzed at 298 nm (Ax). The calculation equation of log P is as follows:(1) log P=log Ax / (A0 − Ax)

[4] = system: L-02 cells; assay: Cellular antioxidant activity (CAA) assay in L-02 cells; type: cell-based, Human
Procedure: Human normal hepatocytes (L-02 cells, passage number 4) were purchased from Cell Bank of Shanghai Institutes for Biological Sciences, Chinese Academy of Sciences (Shanghai, China) and cultured in RPMI 1640 medium (Invitrogen, Carlsbad, CA, USA) supplemented with 10% FBS and 1% penicillin-streptomycin double antibody and were cultured at 37 °C in 5% CO2.
The CAA assay was made using the method of Wolfe and Liu with modifications. L-02 cells were inoculated in black 96-well plates (6 × 10^4 /well, 100 μL) and incubated for 24 h. After removing culture medium, and the cells were washed with PBS and treated with the samples and DCFH-DA (25 μmol/L) for 1 h. Then, the cells were divided into two groups. One group was washed with PBS, and ABAP (600 μmol/L, 100 μL) was added to each well. Another group was only treated with adding 100 μL of ABAP (600 μmol/L) without washing. The black 96-well plates were measured by a Thermo Scientific Fluoroskan Ascent FL (Thermo Fisher Scientific, Waltham, MA, USA) every 5 min for 1 h at an emission wavelength of 538 nm and an excitation wavelength of 485 nm. Three control wells and one blank well were set. The control well was made up of the cells treated with ABAP but without samples, and the blank well was made up of the cells treated without ABAP and samples. Quercetin was used as the positive control. (6) CAA unit=1 - ∫SA/∫CA × 100 where ∫SA represents the area integral under the sample fluorescence value versus time curve and ∫CA represents the area integral under the control fluorescence value versus time curve.

[5] = n-octanol/water, shaken at 30 °C for 24 h, HPLC at 298 nm
[6] = PBS wash between antioxidant and ABAP treatments, read-out: EC50 CAA Unit Wash
[7] = no PBS wash between antioxidant and ABAP treatments, read-out: EC50 CAA Unit No Wash
[8] = Homo sapiens, L02, PBS wash between antioxidant and ABAP treatments, read-out: EC50 CAA Unit Wash
[9] = Homo sapiens, L02, no PBS wash between antioxidant and ABAP treatments, read-out: EC50 CAA Unit No Wash

| IC50 ABTS [1] | IC50 DPPH [2] | logP at 24 h [3, 5] | log P [3] | Structure (SMILES) | scavenging rate of DPPH free radicals [2] [%] | log P [3, 5] | EC50 [4, 6] [µM] | EC50 [4, 7] [µM] | EC50 [4, 8] [µM] | EC50 [4, 9] [µM] |
| --- | --- | --- | --- | --- | --- | --- | --- | --- | --- | --- |
| 61.02 ± 2.15 ^a μg/mL | 4.23 ± 1.38 ^a μg/mL |  |  | O=C1O[C@H]([C@@H](O)CO)C(O)=C1O [Vc, L-ascorbic acid, reference compound] |  |  |  |  |  |  |
| 46.51 ± 2.19 ^a μg/mL | 9.04 ± 0.09 ^bc μg/mL | 0.81 |  | O=C1c2c(O)cc(O)cc2O[C@H](c2cc(O)c(O)c(O)c2)[C@H]1O [DHM, Dihydromyricetin] | 93.37 ± 1.83 |  |  |  | 226 ± 4.67 | 90.2 ± 5.02 |
| 56.30 ± 1.03 ^a μg/mL | 9.08 ± 0.25 ^bc μg/mL |  | 1.50 | CCCC(=O)OC1C(=O)c2c(O)cc(O)cc2OC1c1cc(O)c(O)c(O)c1 (stereo not drawn) [C4-DHM, 3-O-butyryl-DHM] | 92.70 ± 0.79 |  | 60.7 ± 0.64 | 60.8 ± 6.23 |  |  |
| 80.15 ± 0.42 ^a μg/mL | 12.69 ± 0.09 ^c μg/mL |  | 1.73 | CCCCCCCC(=O)OC1C(=O)c2c(O)cc(O)cc2OC1c1cc(O)c(O)c(O)c1 (stereo not drawn) [C8-DHM, 3-O-octanoyl-DHM] | 74.14 ± 0.40 |  | 35.14 ± 0.29 | 45.4 ± 0.74 |  |  |
| 360.69 ± 50.13 ^b μg/mL | 35.93 ± 5.63 ^d μg/mL |  | 1.80 | CCCCCCCCCCCC(=O)OC1C(=O)c2c(O)cc(O)cc2OC1c1cc(O)c(O)c(O)c1 (stereo not drawn) [C12-DHM, 3-O-lauroyl-DHM] | 29.62 ± 4.88 |  | 122 ± 9.48 | 234 ± 9.69 |  |  |

The remaining lines, values behind:

| Structure (SMILES) | IC50 ABTS [1] | IC50 DPPH [2] | logP at 24 h [3, 5] | log P [3] | scavenging rate of DPPH free radicals [2] [%] | log P [3, 5] | EC50 [4, 6] [µM] | EC50 [4, 7] [µM] | EC50 [4, 8] [µM] | EC50 [4, 9] [µM] |
| --- | --- | --- | --- | --- | --- | --- | --- | --- | --- | --- |
| CCCCCC(=O)OC1C(=O)c2c(O)cc(O)cc2OC1c1cc(O)c(O)c(O)c1 (stereo not drawn) [C6-DHM, 3-O-hexanoyl-DHM] | 77.22 ± 1.46 ^a μg/mL | 11.17 ± 0.04 ^bc μg/mL |  |  | 82.53 ± 1.98 | 1.67 | 52.9 ± 2.69 | 65.2 ± 3 |  |  |
| CC(C)(C)c1cc(O)ccc1O [TBHQ, tert-butylhydroquinone, reference compound] | 79.34 ± 3.37 ^a μg/mL | 7.55 ± 0.18 ^ab μg/mL |  |  |  |  |  |  |  |  |
| O=c1c(O)c(-c2ccc(O)c(O)c2)oc2cc(O)cc(O)c12 [Quercetin, reference compound] |  |  |  |  |  |  |  |  | 29 ± 0.36 | 33.9 ± 3.67 |
| CC(=O)OC1C(=O)c2c(O)cc(O)cc2OC1c1cc(O)c(O)c(O)c1 (stereo not drawn) [C2-DHM, 3-O-acetyl-DHM] | 58.29 ± 2.20 ^a μg/mL | 9.07 ± 0.10 ^bc μg/mL |  |  | 92.58 ± 1.33 | 1.32 | 172 ± 8.84 | 77.8 ± 3.81 |  |  |
